Drawing on ChEMBL document CHEMBL2034881, “Inverse Virtual Screening allows the discovery of the biological activity of natural compounds” (Bioorg Med Chem, 2012), this text covers IC50 for two compounds.

The target of experiment [1] is T1, 3-phosphoinositide-dependent protein kinase 1 (Homo sapiens, UniProt O15530).
T1 sequence (O15530 whole entry): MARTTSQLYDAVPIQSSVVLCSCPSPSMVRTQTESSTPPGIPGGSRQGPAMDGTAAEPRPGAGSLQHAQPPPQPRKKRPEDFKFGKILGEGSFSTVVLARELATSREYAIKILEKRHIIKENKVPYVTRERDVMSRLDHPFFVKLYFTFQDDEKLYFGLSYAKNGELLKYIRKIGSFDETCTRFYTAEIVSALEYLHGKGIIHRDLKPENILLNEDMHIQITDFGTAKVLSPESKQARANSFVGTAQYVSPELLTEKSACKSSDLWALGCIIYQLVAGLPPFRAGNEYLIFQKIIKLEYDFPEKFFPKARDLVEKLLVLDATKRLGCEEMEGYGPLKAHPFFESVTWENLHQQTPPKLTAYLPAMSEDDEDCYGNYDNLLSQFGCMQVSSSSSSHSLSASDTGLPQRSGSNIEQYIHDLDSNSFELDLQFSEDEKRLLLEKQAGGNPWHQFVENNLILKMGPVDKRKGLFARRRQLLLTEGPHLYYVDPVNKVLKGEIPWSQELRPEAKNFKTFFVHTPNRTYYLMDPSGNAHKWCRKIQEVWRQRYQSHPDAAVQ
Description: Inhibition of human PDK1 assessed as inhibition of [33P] incorporation into substrate after 60 mins by scintillation counting.

The target of experiment [2] is Protein kinase C alpha type (Homo sapiens, UniProt P17252). Description: Inhibition of human PKC alpha assessed as inhibition of [33P] incorporation into substrate after 60 mins by scintillation counting.
For experiment [3], the target named is Protein kinase C theta type (Homo sapiens, UniProt Q04759). Kind of experiment: Inhibition of human PKC theta assessed as inhibition of [33P] incorporation into substrate after 60 mins by scintillation counting.

A value given as a limit tells only on which side of the number the result lay.

Chain of Protein kinase C theta type (Q04759 whole entry): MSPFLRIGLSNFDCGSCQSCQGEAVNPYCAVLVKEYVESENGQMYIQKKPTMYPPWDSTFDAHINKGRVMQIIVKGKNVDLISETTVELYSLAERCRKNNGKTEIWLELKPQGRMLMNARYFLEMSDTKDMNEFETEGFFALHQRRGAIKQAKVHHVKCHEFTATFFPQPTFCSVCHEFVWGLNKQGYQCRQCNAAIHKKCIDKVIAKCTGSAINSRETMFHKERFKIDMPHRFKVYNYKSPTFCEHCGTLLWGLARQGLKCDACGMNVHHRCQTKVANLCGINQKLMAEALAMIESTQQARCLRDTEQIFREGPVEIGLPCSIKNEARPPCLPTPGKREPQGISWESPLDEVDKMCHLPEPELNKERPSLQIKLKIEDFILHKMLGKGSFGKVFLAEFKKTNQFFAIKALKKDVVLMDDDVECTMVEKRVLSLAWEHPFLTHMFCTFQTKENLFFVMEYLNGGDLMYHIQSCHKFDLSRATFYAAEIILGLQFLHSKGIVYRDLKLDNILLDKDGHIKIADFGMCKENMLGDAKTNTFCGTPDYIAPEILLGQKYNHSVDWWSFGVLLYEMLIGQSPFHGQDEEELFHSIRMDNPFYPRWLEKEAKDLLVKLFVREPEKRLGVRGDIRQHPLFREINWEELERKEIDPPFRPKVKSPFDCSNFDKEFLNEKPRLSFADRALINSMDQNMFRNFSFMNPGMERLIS

What is called IC50 is the concentration needed to halve the response being measured. Regarding `COc1cc(O)c(CC=C(C)C)c2c1C(=O)CC(c1ccc(O)cc1)O2` (stereo unspecified) [ISOXANTHOHUMOL], the IC50 in experiment [1] amounted to 58.7 µM; in experiment [2], 45.3 µM; in experiment [3] it was 31.6 µM.
For `COc1cc(O)c(CC=C(C)C)c(O)c1C(=O)/C=C/c1ccc(O)cc1` [XANTHOHUMOL], the values for the IC50 in experiment [1], in experiment [2] and in experiment [3] were 6.6 µM, more than 100 µM and more than 100 µM, respectively.
